Assays:
CYP124 = CYP124 (Mycobacterium tuberculosis, UniProt P9WPP3); conditions: fragment 1 mM, P450 4-6 µM; relative to DMSO (419 nm)
CYP144 = CYP144 (Mycobacterium tuberculosis, UniProt P9WPL1); conditions: fragment 1 mM, P450 4-6 µM; relative to DMSO (421 nm)
CYP125 = CYP125 (Mycobacterium tuberculosis, UniProt P9WPP1); format: binding; conditions: fragment 1 mM, P450 4-6 µM; Soret shift relative to DMSO (393 nm)
CYP142 = CYP142 (Mycobacterium tuberculosis, UniProt P9WPL5); conditions: fragment 1 mM, P450 4-6 µM; relative to DMSO (418.5 nm)
CYP143 = CYP143 (Mycobacterium tuberculosis, UniProt P9WPL3); conditions: fragment 1 mM, P450 4-6 µM; relative to DMSO (416 nm)
CYP126 = CYP126 (Mycobacterium tuberculosis, UniProt P9WPN9); conditions: fragment 1 mM, P450 4-6 µM; relative to DMSO (418 nm)
CYP121 = CYP121 (Mycobacterium tuberculosis, UniProt P9WPP7); conditions: fragment 1 mM, P450 4-6 µM; relative to DMSO (417 nm)
Chain of CYP121 (P9WPP7 whole entry, the tested form may be a part): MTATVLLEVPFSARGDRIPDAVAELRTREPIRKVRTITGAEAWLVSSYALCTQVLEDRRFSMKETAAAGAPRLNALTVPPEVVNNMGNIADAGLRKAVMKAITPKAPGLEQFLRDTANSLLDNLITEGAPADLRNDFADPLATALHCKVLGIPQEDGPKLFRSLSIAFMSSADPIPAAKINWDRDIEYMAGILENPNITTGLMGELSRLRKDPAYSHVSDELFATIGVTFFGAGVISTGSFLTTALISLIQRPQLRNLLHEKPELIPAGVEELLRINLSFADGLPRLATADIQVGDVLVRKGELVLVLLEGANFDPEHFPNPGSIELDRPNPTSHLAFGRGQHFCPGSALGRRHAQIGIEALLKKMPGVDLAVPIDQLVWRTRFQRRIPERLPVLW

Chain of CYP124 (P9WPP3 whole entry, the tested form may be a part): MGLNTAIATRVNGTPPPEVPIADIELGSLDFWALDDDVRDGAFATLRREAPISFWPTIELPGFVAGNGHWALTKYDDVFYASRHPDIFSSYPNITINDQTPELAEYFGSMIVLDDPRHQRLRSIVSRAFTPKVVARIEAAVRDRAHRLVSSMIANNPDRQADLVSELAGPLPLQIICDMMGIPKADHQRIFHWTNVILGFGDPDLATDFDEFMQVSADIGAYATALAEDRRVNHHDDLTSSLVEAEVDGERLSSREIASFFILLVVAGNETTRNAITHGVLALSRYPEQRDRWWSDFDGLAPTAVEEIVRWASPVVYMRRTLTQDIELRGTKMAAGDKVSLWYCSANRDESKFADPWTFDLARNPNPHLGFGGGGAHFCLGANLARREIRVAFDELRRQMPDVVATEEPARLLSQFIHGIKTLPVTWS
Chain of CYP125 (P9WPP1 whole entry, the tested form may be a part): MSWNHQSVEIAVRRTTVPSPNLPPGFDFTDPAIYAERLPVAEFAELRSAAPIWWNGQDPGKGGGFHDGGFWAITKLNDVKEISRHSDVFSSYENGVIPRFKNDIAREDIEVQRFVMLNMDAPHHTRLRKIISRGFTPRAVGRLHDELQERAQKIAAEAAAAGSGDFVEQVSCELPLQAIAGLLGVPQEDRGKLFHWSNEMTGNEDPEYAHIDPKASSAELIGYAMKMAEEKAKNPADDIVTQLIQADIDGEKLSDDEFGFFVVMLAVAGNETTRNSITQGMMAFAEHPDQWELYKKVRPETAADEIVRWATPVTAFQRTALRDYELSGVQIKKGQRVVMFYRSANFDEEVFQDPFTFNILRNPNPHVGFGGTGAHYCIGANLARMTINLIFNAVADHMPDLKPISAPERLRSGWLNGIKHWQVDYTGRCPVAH
Chain of CYP143 (P9WPL3 whole entry, the tested form may be a part): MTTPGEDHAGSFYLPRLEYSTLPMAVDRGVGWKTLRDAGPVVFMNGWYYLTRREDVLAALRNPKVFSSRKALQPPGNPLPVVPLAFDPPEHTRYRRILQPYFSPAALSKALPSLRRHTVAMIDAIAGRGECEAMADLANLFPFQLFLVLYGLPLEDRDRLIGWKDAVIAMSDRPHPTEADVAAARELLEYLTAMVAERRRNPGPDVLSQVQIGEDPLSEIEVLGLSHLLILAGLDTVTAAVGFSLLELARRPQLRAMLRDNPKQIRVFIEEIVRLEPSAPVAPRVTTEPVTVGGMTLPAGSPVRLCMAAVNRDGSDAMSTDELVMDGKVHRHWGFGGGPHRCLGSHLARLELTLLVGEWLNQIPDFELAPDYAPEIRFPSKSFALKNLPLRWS
Chain of CYP144 (P9WPL1 whole entry, the tested form may be a part): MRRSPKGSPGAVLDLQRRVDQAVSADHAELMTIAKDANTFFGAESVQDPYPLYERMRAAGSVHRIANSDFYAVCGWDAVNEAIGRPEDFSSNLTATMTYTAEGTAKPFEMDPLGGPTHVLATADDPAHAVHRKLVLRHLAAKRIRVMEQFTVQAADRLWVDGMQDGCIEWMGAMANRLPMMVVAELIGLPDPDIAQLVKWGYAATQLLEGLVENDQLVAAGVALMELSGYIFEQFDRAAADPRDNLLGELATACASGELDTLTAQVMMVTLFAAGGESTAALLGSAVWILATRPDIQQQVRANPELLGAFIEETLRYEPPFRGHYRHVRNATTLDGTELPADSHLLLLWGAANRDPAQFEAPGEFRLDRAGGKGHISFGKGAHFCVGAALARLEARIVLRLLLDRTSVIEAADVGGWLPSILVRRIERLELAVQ
Chain of CYP142 (P9WPL5 whole entry, the tested form may be a part): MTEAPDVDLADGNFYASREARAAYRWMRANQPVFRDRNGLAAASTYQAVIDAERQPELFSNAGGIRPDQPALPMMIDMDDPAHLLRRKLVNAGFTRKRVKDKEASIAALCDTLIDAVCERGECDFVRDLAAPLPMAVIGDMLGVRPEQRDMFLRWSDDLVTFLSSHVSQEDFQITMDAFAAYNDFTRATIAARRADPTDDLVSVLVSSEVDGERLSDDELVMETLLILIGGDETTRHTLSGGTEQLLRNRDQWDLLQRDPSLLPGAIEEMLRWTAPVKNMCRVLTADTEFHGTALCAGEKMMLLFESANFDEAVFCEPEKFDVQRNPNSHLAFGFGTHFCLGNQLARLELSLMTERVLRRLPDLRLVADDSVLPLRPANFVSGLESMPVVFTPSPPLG
Chain of CYP126 (P9WPN9 whole entry, the tested form may be a part): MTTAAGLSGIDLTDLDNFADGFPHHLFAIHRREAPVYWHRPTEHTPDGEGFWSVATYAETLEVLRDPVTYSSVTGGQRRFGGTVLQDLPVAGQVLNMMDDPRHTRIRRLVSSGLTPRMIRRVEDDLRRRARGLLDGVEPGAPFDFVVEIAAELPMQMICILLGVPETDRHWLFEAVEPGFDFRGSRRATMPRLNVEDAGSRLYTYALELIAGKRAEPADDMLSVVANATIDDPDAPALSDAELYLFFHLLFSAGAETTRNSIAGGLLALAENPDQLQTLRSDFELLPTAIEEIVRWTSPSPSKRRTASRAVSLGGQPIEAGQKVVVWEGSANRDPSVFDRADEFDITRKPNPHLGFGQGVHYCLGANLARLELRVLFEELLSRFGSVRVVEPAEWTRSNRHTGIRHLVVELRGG

SMILES	Δλmax (nm) CYP124, fragment screen (CYP124) [nm]	Δλmax (nm) CYP144, fragment screen (CYP144) [nm]	Δλmax (nm) CYP125, fragment screen (CYP125) [nm]	Δλmax (nm) CYP142, fragment screen (CYP142) [nm]	Δλmax (nm) CYP143, fragment screen (CYP143) [nm]	Δλmax (nm) CYP126, fragment screen (CYP126) [nm]	Δλmax (nm) CYP121, fragment screen (CYP121) [nm]
Cc1cc(N)n(-c2ccccc2)n1 [compound 6]	0	0	0	0	0.5	0	0
COC(=O)c1ccnc(N)c1 [compound 25]	0	0	0	0	0.5	0	0
c1ccc(-c2c[nH]cn2)cc1 [compound 68]	4	0	0	3	2	1	0
Clc1ccc(Cl)nn1 [compound 27]	0	0	0	0	0.5	0	0
Oc1ccccn1 [compound 44]	0	0	0	0	-0.5	0	0
CNCc1cccc(-c2ccccc2)c1 [compound 21]	-1	0	25	3	4	1	0
O=C(O)c1cncc(F)c1 [compound 60]	0	0	0	0	1	0	0
Cc1[nH]ncc1-c1ccccc1 [compound 14]	3	0	-2	1.5	0	0	0
Cc1nn(-c2ccccc2)nc1C(=O)O [compound 18]	0	0	0	0	0	0	0
O=C(O)c1ccc(-c2cccnc2)cc1 [compound 53]	0	0	0	0	1	0	0
Nc1cccc(Cn2cncn2)c1 [compound 5]	1	0	0	1.5	1	0	2
Cc1ccc(S(N)(=O)=O)nc1 [compound 80]	0	0	0	0	0	0	0
Nc1ccc(Cl)nn1 [compound 73]	0	0	0	0	0	0	0
Brc1c[nH]cn1 [compound 77]	0	0	0	3	0.5	0	-1
Cc1cc(C(=O)O)[nH]n1 [compound 32]	0	0	0	0	-0.5	0	0
COC(=O)c1cc2ccccc2cn1 [compound 26]	0	0	0	0	1	0	0
O=C(O)c1ccc(-n2cccn2)cc1 [compound 54]	0	0	0	0	-0.5	-1	0
O=C(O)c1ccccc1-n1cccn1 [compound 22]	0	0	0	0	0	0	0
CNCc1ccc(-c2ccncc2)cc1 [compound 52]	2	0	28.5	1.5	4	0	-1
Clc1cncc(Cl)c1 [compound 19]	0	0	0	0	0	0	0
Nc1ccc(Br)cn1 [compound 23]	0	0	0	0	0.5	0	-1
Nc1ccc(Oc2ccccc2)nc1 [compound 48]	-1	0	0	1.5	0.5	2	1

Source: PMC12305662, “Fragment-Based Development of Small Molecule Inhibitors Targeting Mycobacterium tuberculosis Cholesterol Metabolism” (Journal of Medicinal Chemistry, 2025)
